Measured values as given in patent US11197826B2, “Oil-in-water emulsions including retinoic acid” (NOVARTIS AG, priority 2015, dated 2021).

Assays:
[1] = system: CCR9 on CD4+ T-cells expressing the DO-11.10 T-cell receptor; experiment: Adoptive T-cell transfer with fingolimod: CCR9 expression and proliferation of DO-11.10 CD4+ T-cells in draining lymph nodes; type: in vivo, mice; conditions: FACS, MF59-adjuvanted ovalbumin plus retinoic acid versus MF59 plus plain vehicle
Experimental: Reference describes experimental protocols for studying the homing of T-cells in mice who receive retinoic acid. In brief, T-cells specific for test antigens (in the present case, ovalbumin) are adoptively transferred into mice and their behaviour in response to specific treatments is studied. This general experimental procedure was used to assess the effect of MF59 and retinoic acid on CCR9 expression in T-cells, and on their in vivo migration.
Mice were injected intravenously with 2×10^6 CD4^+ T-cells which react to ovalbumin peptides (DO-11.10 cells). These cells were labelled with CFSE before being administered. At around the same time they were given either retinoic acid or a plain vehicle. The next day they received MF59-adjuvanted ovalbumin, and the next day they again received RA or plain vehicle, plus fingolimod (which blocks the egress of lymphocytes from lymph nodes). A few days later their draining lymph nodes were drained and CD4^+ T-cells expressing the DO-11.10 T-cell receptor were tested for CCR9 expression by FACS. The CFSE label was used to trace cell proliferation.

[2] = cited from earlier work
[3] = Mucosal antibody responses after MF59-adjuvanted immunisation; type: in vivo, mice
Experimental: To assess antibody responses mice were injected with 3 doses of either ovalbumin or H56 (a […] antigen) on days 0, 21, and 42, adjuvanted with MF59. The day before and after each immunization one group of mice were given retinoic acid whereas control mice received a plain vehicle instead. Serum IgG and vaginal wash IgA antibody responses were assessed at day 56. IgA-secreting cells were also measured in the bone marrow.

CC1=C(/C=C/C(C)=C/C=C/C(C)=C/C(=O)O)C(C)(C)CCC1 [retinoic acid]
number of CCR9-positive cells, fold higher [1]: about 5 ×
solubility in oil [2]: soluble
solubility in water [2]: sparingly soluble
proportion of IgA-secreting cells, fold higher, H56 ([3]; bone marrow, H56 adjuvanted with MF59, retinoic acid versus plain vehicle): around 12 ×
proportion of IgA-secreting cells, fold higher, ovalbumin ([3]; bone marrow, ovalbumin adjuvanted with MF59, retinoic acid versus plain vehicle): about 7 ×
antigen-specific IgA titres in vaginal washes ([3]; day 56, 3 MF59-adjuvanted doses, plain vehicle essentially zero): about 1250
